For 22 molecules, IC50 results are on record in patent US7935815B2, “Imidazoyl pyridine compounds and salts thereof” (Eisai R&D Management Co., Ltd., priority 2007, dated 2011).

For orientation: IC50 means the concentration that gives 50% inhibition.

In the first test the test system is Aβ42 production. The test is described as follows: Quantification of Aβ peptide in culture of neurons from rat fetus brain (Aβ ELISA). The conditions noted are these: Rattus norvegicus, Neuron, 72 h, rat primary neuronal culture (embryonic day 18 Wistar rat cerebral cortex); cultured three days after addition of compound; Aβx-42 ELISA of the medium; read-out: Aβ42 production reducing effect IC50. In kind it is cell-based. A digest of the protocol: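 Primary cortical neurons from E18 Wistar rat embryos were cultured 4 days on poly-lysine, then treated with compound in Neurobasal/B27 without 2-mercaptoethanol (final DMSO ≤1%) for 3 days. Conditioned medium was assayed undiluted by ELISA for Aβx-42, against DMSO-only controls.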
Regarding `COc1cc(/C=C/c2nc3n(n2)C[C@@H](C)C[C@@H]3c2ccc(F)cc2)ccc1-n1cnc(C)c1` [Example 99, (6S,8R)-8-(4-fluorophenyl)-2-{(E)-2-[3-methoxy-4-(4-methyl-1H-imidazol-1-yl)phenyl]vinyl}-6-methyl-5,6,7,8-tetrahydro-[1,2,4]triazolo[1,5-a]pyridine], the IC50 worked out at 0.02 µM.
Regarding `COc1cc(/C=C/c2nc3n(n2)CC[C@@H](C)[C@@H]3c2ccc(F)cc2)ccc1-n1cnc(C)c1` [Example 102, (7R,8R)-8-(4-fluorophenyl)-2-{(E)-2-[3-methoxy-4-(4-methyl-1H-imidazol-1-yl)phenyl]vinyl}-7-methyl-5,6,7,8-tetrahydro-[1,2,4]triazolo[1,5-a]pyridine], the IC50 came out at 0.02 µM.
On the same count and under the same terms, the result for `COc1cc(/C=C/c2nc3n(n2)CC[C@H](O)[C@H]3c2cc(F)c(F)c(F)c2)ccc1-n1cnc(C)c1` [Example 103, (7S,8S)-2-{(E)-2-[3-methoxy-4-(4-methyl-1H-imidazol-1-yl)phenyl]vinyl}-8-(3,4,5-trifluorophenyl)-5,6,7,8-tetrahydro-[1,2,4]triazolo[1,5-a]pyridin-7-ol] reads 0.032 µM.
Same read-out and setting: next, `COc1cc(/C=C/c2nc3n(n2)CC[C@H](O)[C@@H]3c2cc(F)c(F)c(F)c2)ccc1-n1cnc(C)c1` [Example 106, (7S,8R)-2-{(E)-2-[3-methoxy-4-(4-methyl-1H-imidazol-1-yl)phenyl]vinyl}-8-(3,4,5-trifluorophenyl)-5,6,7,8-tetrahydro-[1,2,4]triazolo[1,5-a]pyridin-7-ol]: 0.039 µM.
With `COc1cc(/C=C/c2nc3n(n2)C[C@@H](O)C[C@@H]3c2cc(F)c(F)c(F)c2)ccc1-n1cnc(C)c1` [Example 108, (6S,8R)-2-{(E)-2-[3-methoxy-4-(4-methyl-1H-imidazol-1-yl)phenyl]vinyl}-8-(3,4,5-trifluorophenyl)-5,6,7,8-tetrahydro-[1,2,4]triazolo[1,5-a]pyridin-6-ol], the IC50 was determined as 0.029 µM.
On the same count and under the same terms, the result for `COc1cc(/C=C/c2nc3n(n2)C[C@H](O)C[C@@H]3c2cc(F)c(F)c(F)c2)ccc1-n1cnc(C)c1` [Example 110, (6R,8R)-2-{(E)-2-[3-methoxy-4-(4-methyl-1H-imidazol-1-yl)phenyl]vinyl}-8-(3,4,5-trifluorophenyl)-5,6,7,8-tetrahydro-[1,2,4]triazolo[1,5-a]pyridin-6-ol] reads 0.033 µM; that for `COc1cc(/C=C/c2nc3n(n2)CCCCN3c2ccc(F)cc2)ccc1-n1cnc(C)c1` [Example 165, 8-(4-fluorophenyl)-2-{(E)-2-[3-methoxy-4-(4-methyl-1H-imidazol-1-yl)phenyl]vinyl}-5,6,7,8-tetrahydro-4H-1,3,3a,8-tetraazaazulene], 0.115 µM.
Still for that read-out and setting: next, `COc1nc(/C=C/c2nc3n(n2)CCCN3c2ccc(Cl)cc2)ccc1-n1cnc(C)c1` [Example 232, 4-(4-chlorophenyl)-2-{(E)-2-[6-methoxy-5-(4-methyl-1H-imidazol-1-yl)pyridin-2-yl]vinyl}-4,5,6,7-tetrahydro-[1,2,4]triazolo[1,5-a]pyrimidine]: 0.033 µM.
Still for that read-out and setting: the result for `COc1nc(/C=C/c2nc3n(n2)CCCN3c2ccccc2)ccc1-n1cnc(C)c1` [Example 233, 2-{(E)-2-[6-methoxy-5-(4-methyl-1H-imidazol-1-yl)pyridin-2-yl]vinyl}-4-phenyl-4,5,6,7-tetrahydro-[1,2,4]triazolo[1,5-a]pyrimidine] reads 0.042 µM; that for `COc1nc(/C=C/c2nc3n(n2)CC[C@H](C)N3c2ccc(F)cc2)ccc1-n1cnc(C)c1` [Example 236, (S)-4-(4-fluorophenyl)-2-{(E)-2-[6-methoxy-5-(4-methyl-1H-imidazol-1-yl)pyridin-2-yl]vinyl}-5-methyl-4,5,6,7-tetrahydro-[1,2,4]triazolo[1,5-a]pyrimidine], 0.039 µM; that for `COc1nc(/C=C/c2nc3n(n2)C(C)CCC3c2ccccc2C(F)(F)F)ccc1-n1cnc(C)c1` (stereo not shown) [Example 361, 2-{(E)-2-[6-methoxy-5-(4-methyl-1H-imidazol-1-yl)pyridin-2-yl]vinyl}-5-methyl-8-(2-trifluoromethylphenyl)-5,6,7,8-tetrahydro-[1,2,4]triazolo[1,5-a]pyridine], 0.012 µM.
On to `COc1nc(/C=C/c2nc3n(n2)CCOC3c2ccccc2C(F)(F)F)ccc1-n1cnc(C)c1` (stereo not shown) [Example 368, 2-{(E)-2-[6-methoxy-5-(4-methyl-1H-imidazol-1-yl)pyridin-2-yl]vinyl}-8-(2-trifluoromethylphenyl)-5,6-dihydro-8H-[1,2,4]triazolo[5,1-c][1,4]oxazine], for which the 50% inhibitory concentration (IC50) was 0.025 µM.
With `COc1nc(/C=C/c2nc3n(n2)CCC(C)N3c2ccc(F)cc2F)ccc1-n1cnc(C)c1` (stereo not shown) [Example 371, 4-(2,4-difluorophenyl)-2-{(E)-2-[6-methoxy-5-(4-methyl-1H-imidazol-1-yl)pyridin-2-yl]vinyl}-5-methyl-4,5,6,7-tetrahydro-[1,2,4]triazolo[1,5-a]pyrimidine], the half-maximal inhibitory concentration (IC50) is 0.027 µM.
`COc1nc(/C=C/c2nc3n(n2)CCC(C)N3c2ccccc2C(F)(F)F)ccc1-n1cnc(C)c1` (stereo not shown) [Example 373, 2-{(E)-2-[6-methoxy-5-(4-methyl-1H-imidazol-1-yl)pyridin-2-yl]vinyl}-5-methyl-4-(2-trifluoromethylphenyl)-4,5,6,7-tetrahydro-[1,2,4]triazolo[1,5-a]pyrimidine]: the IC50 turned out to be 0.029 µM.
Still for that read-out and setting: next, `COc1nc(/C=C/c2nc3n(n2)CCC3c2ccccc2)ccc1-n1cnc(C)c1` (stereo not shown) [Example 376, 2-{(E)-2-[6-methoxy-5-(4-methyl-1H-imidazol-1-yl)pyridin-2-yl]vinyl}-7-phenyl-6,7-dihydro-5H-pyrrolo[1,2-b][1,2,4]triazole]: 0.028 µM; `COc1nc(/C=C/c2nc3n(n2)CCC3c2ccc(F)c(F)c2)ccc1-n1cnc(C)c1` (stereo not shown) [Example 380, 7-(3,4-difluorophenyl)-2-{(E)-2-[6-methoxy-5-(4-methyl-1H-imidazol-1-yl)pyridin-2-yl]vinyl}-6,7-dihydro-5H-pyrrolo[1,2-b][1,2,4]triazole]: 0.029 µM; `COc1nc(/C=C/c2nc3n(n2)CCC3c2cc(F)cc(F)c2)ccc1-n1cnc(C)c1` (stereo not shown) [Example 384, 7-(3,5-difluorophenyl)-2-{(E)-2-[6-methoxy-5-(4-methyl-1H-imidazol-1-yl)pyridin-2-yl]vinyl}-6,7-dihydro-5H-pyrrolo[1,2-b][1,2,4]triazole]: 0.036 µM.
The same measure, in the same setting: next, `COc1nc(/C=C/c2nc3n(n2)CCC3c2ccccc2C(F)(F)F)ccc1-n1cnc(C)c1` (stereo not shown) [Example 390, 2-{(E)-2-[6-methoxy-5-(4-methyl-1H-imidazol-1-yl)pyridin-2-yl]vinyl}-7-(2-trifluoromethylphenyl)-6,7-dihydro-5H-pyrrolo[1,2-b][1,2,4]triazole]: 0.026 µM; `COc1nc(/C=C/c2nc3n(n2)CCC3c2cc(F)ccc2C(F)(F)F)ccc1-n1cnc(C)c1` (stereo not shown) [Example 392, 7-(5-fluoro-2-trifluoromethylphenyl)-2-{(E)-2-[6-methoxy-5-(4-methyl-1H-imidazol-1-yl)pyridin-2-yl]vinyl}-6,7-dihydro-5H-pyrrolo[1,2-b][1,2,4]triazole]: 0.022 µM.

Staying with this test, now noted: rat primary neuronal culture (embryonic day 18 Wistar rat cerebral cortex); cultured three days after addition of compound; Aβx-42 ELISA of the medium; read-out: Aβ42 production reducing effect IC50.
As to `COc1nc(/C=C/c2nc3n(n2)CCC[C@H]3c2ccc(F)c(F)c2F)ccc1-n1cnc(C)c1` [Example 339, (S)-2-{(E)-3-[6-methoxy-5-(4-methyl-1H-imidazol-1-yl)pyridin-2-yl]vinyl}-8-(2,3,4-trifluorophenyl)-5,6,7,8-tetrahydro-[1,2,4]triazole[1,5-a]pyridine], the IC50 came to 0.021 µM.
The same measure, in the same setting: next, `COc1nc(/C=C/c2nc3n(n2)C(C)CCC3c2ccccc2C(F)(F)F)ccc1-n1cnc(C)c1` (stereo not shown) [Example 362, 2-{(E)-2-[6-methoxy-5-(4-methyl-1H-imidazol-1-yl)pyridin-2-yl]vinyl}-5-methyl-8-(2-trifluoromethylphenyl)-5,6,7,8-tetrahydro-[1,2,4]triazolo[1,5-a]pyridine]: 0.009 µM; `COc1nc(/C=C/c2nc3n(n2)CCCC3c2cc(F)cc(F)c2)ccc1-n1cnc(C)c1` (stereo not shown) [Example 365, 8-(3,5-difluorophenyl)-2-{(E)-2-[6-methoxy-5-(4-methyl-1H-imidazol-1-yl)pyridin-2-yl]vinyl}-5,6,7,8-tetrahydro-[1,2,4]triazolo[1,5-a]pyridine]: 0.021 µM.
